The values below are quoted from earlier work in US20070072940A1, “Use of quinol derivatives thereof for cosmetic, dietary supplement or pharmaceutical compositions and compositions thereby obtained” (priority 2005, published 2007).

For series [1], the system named is skin trauma such as bruising or blemishes. Conditions: applied topically.
In series [2] the test system is free radical.
In series [3] the test system is lipid peroxidation in liposomes.
For series [4] the following is noted: results combined with previous research.
Series [5] relates to nutritional muscular dystrophy.
Series [6] concerns low density lipoprotein lipids.
Series [7] concerns B. subtilis. Conditions: in vitro.
The subject of series [8] is S. aureus. Conditions: in vitro.
The test system of series [9] is fibrin. Conditions: through an action on the polymerization of fibrin.

As to `CC1=C(C/C=C(\C)CCC[C@H](C)CCC[C@H](C)CCCC(C)C)C(=O)c2ccccc2C1=O` [Vitamin K, Phytonadione], in series [1], the “reduction of severity of skin trauma” value is recorded as “ability to reduce the severity of skin trauma”.
Menaquinol: the “free radical scavenging ability, comparison” value in series [2] was “greater than that of alpha tocopherol quinol, plastoquinol, and alpha tocopherol”.
`CC(C)=CCC/C(C)=C/CC/C(C)=C/CC/C(C)=C/CC/C(C)=C/CC/C(C)=C/CC/C(C)=C/CC/C(C)=C/CC/C(C)=C/Cc1cc(O)c(C)c(C)c1O` [Plastoquinol]: the “free radical scavenging ability, comparison” value in series [2] is “greater than that of ubiquinol and alpha tocopherol”.
For the compound `C/C(=C\Cc1c(C)c(O)c2ccccc2c1O)CCC[C@H](C)CCC[C@H](C)CCCC(C)C` [Phylloquinol], the “free radical scavenging ability, comparison” value in [2] is “greater than that of alpha tocopherol quinol, plastoquinol, and alpha tocopherol”.
Consider `Cc1c(C)c(O)c(CC[C@](C)(O)CCC[C@H](C)CCC[C@H](C)CCCC(C)C)c(C)c1O` [alpha tocopherol quinol], for which the “inhibition of lipid peroxidation” value in [3] is listed as “shown to inhibit lipid peroxidation”. Moreover, the “inhibition of lipid peroxidation in liposomes, comparison” value in [3] (liposomes, compared with alpha tocopherol quinone) was “superior inhibition of lipid peroxidation in liposomes”. Besides, the toxicity entry in series [4] is “non-toxic”. Besides, the “free radical scavenging ability, comparison” value in series [2] was “greater than that of ubiquinol and alpha tocopherol”. Also, the “prevention and treatment of nutritional muscular dystrophy” value in series [5] (rabbit, injectable and oral) is “could prevent and treat nutritional muscular dystrophy”. In [5] (vitamin E deficiency), the “prevention of creatinuria and loss of weight caused by vitamin E deficiency” value was “could prevent creatinuria and loss of weight”. Also, the “interception of aqueous peroxyl radicals” value in [6] is “directly intercepted aqueous peroxyl radicals”. Also, the “reduction of lipoprotein ubiquinone to ubiquinol” value in series [6] (associated with LDL) was “instantaneously reduce the lipoprotein ubiquinone to ubiquinol”. In addition, the “quenching of alpha tocopheroxyl radicals” value in [6] (in oxidizing LDL) was “rapidly quenched alpha tocopheroxyl radicals”. Besides, the “inhibition of radical initiated oxidation of low density lipoprotein lipids” value in [6] (in vitro) is “efficient multifunctional inhibitor”.
Consider `CC1=C(C)C(=O)C(CC[C@](C)(O)CCC[C@H](C)CCC[C@H](C)CCCC(C)C)=C(C)C1=O` [alpha tocopherol quinone], for which the “inhibition of lipid peroxidation” value in series [3] is “shown to inhibit lipid peroxidation”. For the same compound, in series [4], the toxicity entry is reported as “non-toxic”.
Regarding `Cc1c(C)c2c(c(C)c1OP(=O)(O)O)CC[C@@](C)(CCC[C@H](C)CCC[C@H](C)CCCC(C)C)O2` [DL alpha tocopherol phosphate], in series [7], the “antimicrobial action on B. subtilis” value was “antimicrobial action”. Besides, the “antimicrobial action on S. aureus” value in [8] is on record as “antimicrobial action”. The anticoagulant action entry in series [9] was “anticoagulant action”.
